We go through 9 molecules from ChEMBL document CHEMBL3046729, “Design, synthesis, and cytotoxic activities of new 2,4,5-triarylimidazoles” (Med Chem Res, 2013).

The structures appear in SMILES notation.

The term IC50 denotes the concentration needed to halve the response being measured.

Assay [1] relates to T47D. The assay can be described thus: Cytotoxicity against Homo sapiens (human) T47D cells assessed as inhibition of cell proliferation after 72 hr by MTT assay. The class given is functional, cell-based. Background: Tetrazolium dyes change colour on reduction, which living cells bring about.
Assay [2] relates to MDA-MB-231. Kind of assay: Cytotoxicity against Homo sapiens (human) MDA-MB-231 cells assessed as inhibition of cell proliferation after 72 hr by MTT assay. The note with it: MDA-MB-231, 72 h. Type of assay: functional, cell-based.
The subject of assay [3] is MCF7. The assay can be described thus: Cytotoxicity against Homo sapiens (human) MCF7 cells assessed as inhibition of cell proliferation after 72 hr by MTT assay. The class given is functional, cell-based. The note with it: MCF7, 72 h.
Assay [4] relates to MCF7 (Homo sapiens). Kind of assay: Cytotoxicity against Homo sapiens (human) MCF7 cells assessed as inhibition of cell proliferation after 72 hr by MTT assay. The note with it: MCF7, 72 h.

As to `Oc1ccc(-c2nc(-c3ccc(OCCN4CCCCC4)cc3)c(-c3ccccc3)[nH]2)cc1`, the half-inhibitory concentration (IC50) in assay [1], in assay [2] and in assay [3] was under 0.1 µM in each case.

Regarding `c1ccc(-c2nc(-c3ccc(OCCN4CCCCC4)cc3)c(-c3ccccc3)[nH]2)cc1`, the IC50 in assay [1], in assay [2] and in assay [3] was under 0.1 µM throughout.

As for `COc1ccc(-c2nc(-c3ccc(OCCN4CCCCC4)cc3)c(-c3ccccc3)[nH]2)cc1`, the IC50 in assay [1] turned out to be 54 µM; in assay [2], 65 µM; in assay [3], 71 µM.

Take `COc1ccc(-c2nc(-c3ccc(OCCN(C)C)cc3)c(-c3ccccc3)[nH]2)cc1`: the IC50 in assay [1] was determined as 28 µM; in assay [2], 42 µM.

Turning to `CC/C(=C(\c1ccccc1)c1ccc(OCCN(C)C)cc1)c1ccccc1` [TAMOXIFEN], the IC50 in assay [1] was 12.1 µM; in assay [2] it was 25.1 µM; in assay [3], 55.5 µM.

As to `CN(C)CCOc1ccc(-c2nc(-c3ccc(F)cc3)[nH]c2-c2ccccc2)cc1`, the IC50 in assay [4] came to 82 µM; in assay [1], 61 µM.

For `CN(C)CCOc1ccc(-c2nc(-c3ccccc3)[nH]c2-c2ccccc2)cc1`, the results for the IC50 in assay [1] and in assay [2] were 50 µM and 53 µM, respectively.

Turning to `CN(C)CCOc1ccc(-c2nc(-c3ccc(O)cc3)[nH]c2-c2ccccc2)cc1`, the IC50 in assay [1] was found to be 63 µM; in assay [2], 70 µM; in assay [3], 82 µM.

Take `Fc1ccc(-c2nc(-c3ccc(OCCN4CCCCC4)cc3)c(-c3ccccc3)[nH]2)cc1`: the IC50 in assay [1] was 61 µM; in assay [2] it was 78 µM; in assay [3], over 100 µM.
